Assay results: US20110059043A1, “CHEMICAL COMPOUNDS” (priority 2009, published 2011)

How the values were obtained:
[1] = tested on: HCV replicon cells Huh 9B; assay: HCV replicon assay (luciferase); format: cell-based; details: Hepatitis C virus, reduction of replicon level by 50% vs untreated cell control, 72 h
Method: (§1) HCV replicon cells Huh 9B (ReBlikon), containing the firefly luciferase—ubiquitin—neomycin phosphotransferase fusion protein and EMCV-IRES driven HCV polyprotein with cell culture adaptive mutations.
(§2) Cells were cultured at 37° C. in a 5% CO2 environment and split twice a week on seeding at 2×10^6 cells/flask on day 1 and 1×10^6 3 days later. G418 at 0.5 mg/ml was added to the culture medium but not the assay medium. The culture medium consisted of DMEM with […] glucose and glutamax (Gibco 61965-026) supplemented with 1×non-essential amino acids (Invitrogen 11140-035), penicillin (100 IU/ml)/streptomycin (100 μg/ml) (Invitrogen 15140-122), FCS (10%, 50 ml) and […] (Invitrogen 10131-027) & 10% Australian foetal calf serum (Invitrogen 10099-141).
(§3) A flask of cells was trypsinised and a cell count carried out. Cells were diluted to 100,000 cells/ml and 100 μl of this used to seed one opaque white 96-well plate (for the replicon assay) and one flat-bottomed clear plate (for the tox assay) for every five compounds to be tested for IC50. Wells G12 and H12 were left empty in the clear plate as the blank. Plates were then incubated at 37° C. in a 5% CO2 environment for 24 h.
(§4) On the following day compound dilutions are made up in medium at twice their desired final concentration in a clear round bottomed plate. All dilutions have a final DMSO concentration of 1%.
(§5) Once the dilution plate had been made up, controls and compounds were transferred to the assay plates (containing the cells) at 100 μl/well in duplicate wells. Exception: no compound was added to wells A1 and A2 of either plate and 100 μl of 1% DMSO was added to these instead. Plates were then incubated at 37° C. with 5% CO2 for 72 h.
At the end of the incubation time, the cells in the white plate were harvested by washing in PBS (100 μL per well) and gently tapping dry before addition of […] of lysis buffer (25 mM tris-phosphate, 8 mM MgCl2, 1 mM DTT, 1% Triton X-100, 15% glycerol. pH to 7.8 using KH2PO4 prior to triton and glycerol addition. Substrate was prepared: 23.5 mM beetle luciferin (Promega E1603), 26 mM ATP (Sigma O-2060) in […] Tris buffer pH 7.8 aliquoted and stored at −80° C. was thawed and diluted 1:50 in luciferase assay buffer (20 mM Tricine (Sigma T-0377), 1.07 mM magnesium carbonate hydroxide (Sigma M-5671), 0.1 mM EDTA (Sigma E-5134), 2.67 mM MgSO4(BDH 101514Y), 33.3 mM dithiothreitol (Sigma 150460) pH 7.8).
The M injector of the microplate luminometer (Lmax, Molecular Devices) was primed with 5×300 μl injections of the diluted substrate. After 5-60 min incubation in lysis buffer at room temperature, a plate was inserted into the luminometer and 100 μl luciferase assay reagent was added by the injector on the luminometer. The signal was measured using a 1 second delay followed by a 4 second measurement programme. The IC50, the concentration of the drug required for reducing the replicon level by 50% in relation to the untreated cell control value, can be calculated from the plot of the percentage reduction of the luciferase activity vs. drug concentration.

[2] = target: T1, Recombinant HCV polymerase (BK strain) (Hepatitis C virus genotype 1b, UniProt P26663); assay: HCV polymerase enzyme assay (radiometric [33P]-UTP incorporation); format: biochemical, HCV 1b
T1 construct: Recombinant HCV polymerase (BK strain) was expressed and purified from E. coli with a 21 amino acid C-terminal deletion; His6; made in house; host or cells: E. coli
T1 sequence (P26663 2420-2989): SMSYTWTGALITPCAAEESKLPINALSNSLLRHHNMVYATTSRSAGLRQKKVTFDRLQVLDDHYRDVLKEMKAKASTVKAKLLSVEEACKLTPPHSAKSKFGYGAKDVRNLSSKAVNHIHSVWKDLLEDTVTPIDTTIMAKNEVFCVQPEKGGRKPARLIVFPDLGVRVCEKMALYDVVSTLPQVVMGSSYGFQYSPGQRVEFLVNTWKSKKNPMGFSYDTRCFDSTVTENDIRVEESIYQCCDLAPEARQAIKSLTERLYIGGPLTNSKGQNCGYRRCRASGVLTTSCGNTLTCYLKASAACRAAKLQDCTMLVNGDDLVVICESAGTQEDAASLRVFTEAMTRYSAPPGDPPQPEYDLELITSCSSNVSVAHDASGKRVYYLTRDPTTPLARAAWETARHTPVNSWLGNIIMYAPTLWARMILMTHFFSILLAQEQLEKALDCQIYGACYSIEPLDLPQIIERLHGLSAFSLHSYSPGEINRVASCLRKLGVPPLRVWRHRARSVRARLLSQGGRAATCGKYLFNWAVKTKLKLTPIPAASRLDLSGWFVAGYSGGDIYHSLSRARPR
Method: Compounds were tested for inhibition of HCV polymerase using a radiometric [^33P]-UTP incorporation assay and a biotinylated U13:PolyA primer:template RNA substrate.
Recombinant HCV polymerase (BK strain) was expressed and purified from E. coli with a 21 amino acid C-terminal deletion and a His6-tag. The general assay buffer consisted of 20 mM Tris (pH 7.5), 25 mM KCl, 5 mM MgCl2, 3 mM DTT, 0.5 mg/ml BSA, 0.01% Tween20. The standard reaction, in 96 well plates, contained 10 μl of diluted compound, 50 μl of substrate and 40 μl of enzyme. Compounds, supplied as 10 mM stocks in DMSO, were diluted initially in neat DMSO, and subsequently buffer was added to give a DMSO concentration of 30%; 10 μl of this was added to the assay plate to give a final concentration in the 100 μl assay of 3% DMSO. The biotinylated U13:PolyA RNA substrate was pre-annealed with 40 μM 5′-biotinylated U13 (Dharmacon) and 213 μg/ml PolyA (Amersham Biosciences) in water incubated at 70° C. for 5 minutes before being cooled on ice. Substrate (50 μl) was added in buffer to give a final concentration in the 100 μl assay of 125 nM biotinylated U13:0.63 μg/ml PolyA and 200 nM UTP with 0.4 μCi [^33P]-UTP per well (Perkin Elmer). The reaction was initiated by the addition of 40 μl of enzyme in buffer to give 100 nM final concentration. The reaction was incubated at 25° C. for 100 minutes and then stopped by addition of 100 μl of 100 mM EDTA. The samples were then transferred to 96 well Streptavidin-coated FlashPlates (Perkin Elmer) and incubated at room temperature for ˜1 hour to allow binding to occur. The plates were then washed three times with phosphate-buffered saline containing 0.05% Tween20 in an automated plate washer to remove unincorporated [^33P]-UTP, and then counted in a
Each plate included a set of positive controls (no compound, maximum signal) and negative controls (no enzyme, minimum signal) and in each run at least one reference is compound was included to validate the assay. The IC50, concentration required to inhibit the enzyme activity by 50%, was calculated using an 8-point IC50 curve and fitted using the program XLfit (IDBS).

[3] = tested on: HCV replicon cells Huh 9B; format: cell-based; details: concentration reducing total cell area by 50% relative to DMSO controls; 72 h
Method: as §1, §2, §3, §4, §5
The clear plate was stained with 100 μl 0.5% methylene blue in 50% ethanol at room temperature for lh, followed by solvation of the absorbed methylene blue in 100 μl per well of 1% lauroylsarcosine. Absorbance of the plate was measured on a microplate spectrophotometer (Molecular Devices) and the absorbance for each concentration of compound expressed as a proportion of the relative DMSO control. The TD50, the concentration of drug required to reduce the total cell area by 50% relative to the DMSO controls, can be calculated by plotting the absorbance at 620 nm minus background against drug concentration.

With `COCCCOc1ccc(Cl)cc1C(=O)NC1N=C(c2c(Cl)cc(Cl)cc2Cl)c2ccccc2NC1=O` (stereo not drawn) [Example 1, 5-chloro-2-(3-methoxypropoxy)-N-(2-oxo-5-(2,4,6-trichlorophenyl)-2,3-dihydro-1H-benzo[e][1,4]diazepin-3-yl)benzamide] the IC50 [1] was 210 nM, the IC50 [2] was 354 nM and the “Replicon Assay Value TD50” value [3] was greater than 25 µM.

With `CO[C@@H](C)COc1ccc(Cl)cc1C(=O)NC1N=C(c2c(Cl)cc(Cl)cc2Cl)c2ccccc2NC1=O` (stereo partly drawn) [Example 2, 5-Chloro-2-((S)-2-methoxypropoxy)-N-(2-oxo-5-(2,4,6-trichlorophenyl)-2,3-dihydro-1H-benzo[e][1,4]diazepin-3-yl)benzamide] the IC50 [1] was 382 nM, the IC50 [2] was 167 nM and the “Replicon Assay Value TD50” value [3] was greater than 25 µM.

For `CCOCCOc1ccc(Cl)cc1C(=O)NC1N=C(c2c(Cl)cc(Cl)cc2Cl)c2ccccc2NC1=O` (stereo not drawn) [Example 3, 5-Chloro-2-(2-ethoxyethoxy)-N-(2-oxo-5-(2,4,6-trichlorophenyl)-2,3-dihydro-1H-benzo[e][1,4]diazepin-3-yl)benzamide], the IC50 [1] was 82.9 nM, the IC50 [2] was 111 nM and the “Replicon Assay Value TD50” value [3] was 16.177 µM.

For `COCC(C)Oc1ccc(Cl)cc1C(=O)NC1N=C(c2c(Cl)cc(Cl)cc2Cl)c2ccccc2NC1=O` (stereo not drawn) [Example 4, 5-Chloro-2-(1-methoxypropan-2-yloxy)-N-(2-oxo-5-(2,4,6-trichlorophenyl)-2,3-dihydro-1H-benzo[e][1,4]diazepin-3-yl)benzamide], the IC50 [1] was 304 nM, the IC50 [2] was 261 nM and the “Replicon Assay Value TD50” value [3] was greater than 25 µM.

In the case of `COCCOCCOc1ccc(Cl)cc1C(=O)NC1N=C(c2c(Cl)cc(Cl)cc2Cl)c2ccccc2NC1=O` (stereo not drawn) [Example 5, 5-Chloro-2-(2-(2-methoxyethoxy)ethoxy)-N-(2-oxo-5-(2,4,6-trichlorophenyl)-2,3-dihydro-1H-benzo[e][1,4]diazepin-3-yl)benzamide], the IC50 [1] is reported as 490 nM, the IC50 [2] is reported as 209 nM and the “Replicon Assay Value TD50” value [3] is reported as 15.913 µM.

For `CC(C)COCCOc1ccc(Cl)cc1C(=O)NC1N=C(c2c(Cl)cc(Cl)cc2Cl)c2ccccc2NC1=O` (stereo not drawn) [Example 6, 5-Chloro-2-(2-isobutoxyethoxy)-N-(2-oxo-5-(2,4,6-trichlorophenyl)-2,3-dihydro-1H-benzo[e][1,4]diazepin-3-yl)benzamide], the IC50 [1] was 849 nM, the IC50 [2] was 715 nM and the “Replicon Assay Value TD50” value [3] was 10.604 µM.

`CCCCCOCCOc1ccc(Cl)cc1C(=O)NC1N=C(c2c(Cl)cc(Cl)cc2Cl)c2ccccc2NC1=O` (stereo not drawn) [Example 7, 5-Chloro-N-(2-oxo-5-(2,4,6-trichlorophenyl)-2,3-dihydro-1H-benzo[e][1,4]diazepin-3-yl)-2-(2-(pentyloxy)ethoxy)benzamide] was tested, and the IC50 [1] was 1450 nM, the IC50 [2] was 662 nM and the “Replicon Assay Value TD50” value [3] was 11.806 µM.

`CCOCCOCCOc1ccc(Cl)cc1C(=O)NC1N=C(c2c(Cl)cc(Cl)cc2Cl)c2ccccc2NC1=O` (stereo not drawn) [Example 8, 5-Chloro-2-(2-(2-ethoxyethoxy)ethoxy)-N-(2-oxo-5-(2,4,6-trichlorophenyl)-2,3-dihydro-1H-benzo[e][1,4]diazepin-3-yl)benzamide] was tested, and the IC50 [1] was 1340 nM, the IC50 [2] was 1070 nM and the “Replicon Assay Value TD50” value [3] was 11.724 µM.

With `O=C(NC1N=C(c2c(Cl)cc(Cl)cc2Cl)c2ccccc2NC1=O)c1cc(Cl)ccc1OCC1CCCO1` (stereo not drawn) [Example 9, 5-Chloro-N-(2-oxo-5-(2,4,6-trichlorophenyl)-2,3-dihydro-1H-benzo[e][1,4]diazepin-3-yl)-2-((tetrahydrofuran-2-yl)methoxy)benzamide] the IC50 [1] was 610 nM, the IC50 [2] was 296 nM and the “Replicon Assay Value TD50” value [3] was greater than 25 µM.

With `CCCCOCCOc1ccc(Cl)cc1C(=O)NC1N=C(c2c(Cl)cc(Cl)cc2Cl)c2ccccc2NC1=O` (stereo not drawn) [Example 10, 2-(2-Butoxyethoxy)-5-chloro-N-(2-oxo-5-(2,4,6-trichlorophenyl)-2,3-dihydro-1H-benzo[e][1,4]diazepin-3-yl)benzamide] the IC50 [1] was 338 nM, the IC50 [2] was 757 nM and the “Replicon Assay Value TD50” value [3] was greater than 25 µM.
